Here are results for 13 compounds from patent US11713338B2, “Cyclic peptides multimers targeting α-4-β-7 integrin” (priority 2016, dated 2023).

For the assay, the target named is T1, integrin α4β7 (RPMI8866 human cells adhering to MAdCAM-1) (Homo sapiens, UniProt P13612+P26010).
T1 construct: RMP18866 cells, which express integrin α4β7; host or cells: RPMI8866
T1 sequence (P13612 34-1032): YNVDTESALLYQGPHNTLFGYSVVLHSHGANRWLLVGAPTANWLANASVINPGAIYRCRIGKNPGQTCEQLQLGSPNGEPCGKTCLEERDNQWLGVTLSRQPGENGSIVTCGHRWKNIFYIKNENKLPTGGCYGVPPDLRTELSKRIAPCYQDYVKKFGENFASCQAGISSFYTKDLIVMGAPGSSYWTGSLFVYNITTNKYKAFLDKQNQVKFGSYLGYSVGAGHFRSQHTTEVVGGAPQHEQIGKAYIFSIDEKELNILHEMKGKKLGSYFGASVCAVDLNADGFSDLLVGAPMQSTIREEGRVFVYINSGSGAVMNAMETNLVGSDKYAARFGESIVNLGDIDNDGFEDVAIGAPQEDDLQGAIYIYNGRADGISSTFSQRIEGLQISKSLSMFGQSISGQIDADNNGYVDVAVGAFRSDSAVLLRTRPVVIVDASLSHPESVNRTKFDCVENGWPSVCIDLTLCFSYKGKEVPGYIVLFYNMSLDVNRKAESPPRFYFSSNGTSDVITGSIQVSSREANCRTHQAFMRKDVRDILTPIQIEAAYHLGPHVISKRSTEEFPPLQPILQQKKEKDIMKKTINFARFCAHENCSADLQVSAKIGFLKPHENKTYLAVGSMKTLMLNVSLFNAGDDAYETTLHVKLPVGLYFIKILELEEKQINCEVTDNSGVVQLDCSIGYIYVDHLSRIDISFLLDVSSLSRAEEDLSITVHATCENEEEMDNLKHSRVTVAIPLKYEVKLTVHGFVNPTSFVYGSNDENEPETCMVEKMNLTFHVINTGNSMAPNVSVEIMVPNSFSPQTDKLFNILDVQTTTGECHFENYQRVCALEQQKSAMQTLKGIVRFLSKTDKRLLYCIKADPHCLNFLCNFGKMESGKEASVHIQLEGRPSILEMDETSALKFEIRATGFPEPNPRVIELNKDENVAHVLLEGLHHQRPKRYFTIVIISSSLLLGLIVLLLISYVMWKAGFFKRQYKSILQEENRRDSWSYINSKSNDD
T1 sequence (P26010 20-798): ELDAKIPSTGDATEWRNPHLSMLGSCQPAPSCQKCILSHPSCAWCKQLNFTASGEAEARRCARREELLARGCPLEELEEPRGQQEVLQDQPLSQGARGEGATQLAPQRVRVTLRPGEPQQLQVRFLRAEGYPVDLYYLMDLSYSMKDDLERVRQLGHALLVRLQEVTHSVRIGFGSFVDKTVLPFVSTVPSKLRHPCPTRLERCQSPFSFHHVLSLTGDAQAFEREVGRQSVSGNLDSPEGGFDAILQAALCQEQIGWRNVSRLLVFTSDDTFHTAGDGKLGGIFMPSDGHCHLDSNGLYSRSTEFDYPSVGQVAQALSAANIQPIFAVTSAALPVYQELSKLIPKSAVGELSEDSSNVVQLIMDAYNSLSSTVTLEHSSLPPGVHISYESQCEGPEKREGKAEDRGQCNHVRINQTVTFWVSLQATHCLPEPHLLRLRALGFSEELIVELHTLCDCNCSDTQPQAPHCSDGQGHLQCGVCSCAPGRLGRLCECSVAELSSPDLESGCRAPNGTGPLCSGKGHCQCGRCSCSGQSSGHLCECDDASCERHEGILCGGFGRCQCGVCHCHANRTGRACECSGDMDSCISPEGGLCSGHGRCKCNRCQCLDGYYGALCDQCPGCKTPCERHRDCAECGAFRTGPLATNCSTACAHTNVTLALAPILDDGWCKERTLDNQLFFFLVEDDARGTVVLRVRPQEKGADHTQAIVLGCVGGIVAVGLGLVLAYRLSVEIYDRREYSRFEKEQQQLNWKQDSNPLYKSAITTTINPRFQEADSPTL
Description: Integrin α4β7-MAdCAM cell adhesion assay (RPMI8866 cells). Format: cell-based. To be noted: RPMI8866 cells adhering to MAdCAM; read-out: RPMI8866 Adhesion α4β7/MAdCAM IC50. As to the method:
Integrin α4β7-MAdCAM Cell Adhesion Assay
RPMI8866 cells were resuspended at 10 million cells/ml in PBS containing […] and incubated at 37° C. for 30 min in a 50 ml tube. […] The plate was emptied by inverting and blotting on paper towels and washed manually twice with PBS. 100 μl PBS was then added to each well. […] To calculate the dose response, the fluorescence value of control wells not containing cells was subtracted from each test well.

Consider `CC(C)C[C@@H]1NC(=O)c2ccc(-c3ccc(N4CCN(C(=O)C5(C(=O)N6CCN(c7ccc(-c8ccc9cc8CNC(=O)[C@@H]8CCCN8[C@H](C(=O)NC(C)(C)C)[C@H](C)NC(=O)[C@H]([C@@H](C)O)NC(=O)[C@H](CC(=O)O)NC(=O)[C@H](CC(C)C)NC9=O)cc7)CC6)CC5)CC4)cc3)c(c2)CNC(=O)[C@@H]2CCCN2[C@H](C(=O)NC(C)(C)C)[C@H](C)NC(=O)[C@H]([C@@H](C)O)NC(=O)[C@H](CC(=O)O)NC1=O` [Compound 459], for which the IC50 was found to be 33 nM.
Next, `CC(C)C[C@@H]1NC(=O)c2ccc(-c3ccc(N4CCN(C(=O)c5ccc(C(=O)N6CCN(c7ccc(-c8ccc9cc8CNC(=O)[C@@H]8CCCN8[C@H](C(=O)NC(C)(C)C)[C@H](C)NC(=O)[C@H]([C@@H](C)O)NC(=O)[C@H](CC(=O)O)NC(=O)[C@H](CC(C)C)NC9=O)cc7)CC6)c6ccccc56)CC4)cc3)c(c2)CNC(=O)[C@@H]2CCCN2[C@H](C(=O)NC(C)(C)C)[C@H](C)NC(=O)[C@H]([C@@H](C)O)NC(=O)[C@H](CC(=O)O)NC1=O` [Compound 463]: 21 nM; `CC(C)C[C@@H]1NC(=O)c2ccc(-c3ccc(N4CCN(C(=O)c5cccc(C(=O)N6CCN(c7ccc(-c8ccc9cc8CNC(=O)[C@@H]8CCCN8[C@H](C(=O)NC(C)(C)C)[C@H](C)NC(=O)[C@H]([C@@H](C)O)NC(=O)[C@H](CC(=O)O)NC(=O)[C@H](CC(C)C)NC9=O)cc7)CC6)n5)CC4)cc3)c(c2)CNC(=O)[C@@H]2CCCN2[C@H](C(=O)NC(C)(C)C)[C@H](C)NC(=O)[C@H]([C@@H](C)O)NC(=O)[C@H](CC(=O)O)NC1=O` [Compound 472]: 80 nM.
To `CC(C)C[C@@H]1NC(=O)c2ccc(-c3ccc(N4CCN(C(=O)CCSCCC(=O)N5CCN(c6ccc(-c7ccc8cc7CNC(=O)[C@@H]7CCCN7[C@H](C(=O)NC(C)(C)C)[C@H](C)NC(=O)[C@H]([C@@H](C)O)NC(=O)[C@H](CC(=O)O)NC(=O)[C@H](CC(C)C)NC8=O)cc6)CC5)CC4)cc3)c(c2)CNC(=O)[C@@H]2CCCN2[C@H](C(=O)NC(C)(C)C)[C@H](C)NC(=O)[C@H]([C@@H](C)O)NC(=O)[C@H](CC(=O)O)NC1=O` [Compound 473] belongs 63 nM; to `CC(C)C[C@@H]1NC(=O)c2ccc(-c3ccc(N4CCN(C(=O)c5ncn(C)c5C(=O)N5CCN(c6ccc(-c7ccc8cc7CNC(=O)[C@@H]7CCCN7[C@H](C(=O)NC(C)(C)C)[C@H](C)NC(=O)[C@H]([C@@H](C)O)NC(=O)[C@H](CC(=O)O)NC(=O)[C@H](CC(C)C)NC8=O)cc6)CC5)CC4)cc3)c(c2)CNC(=O)[C@@H]2CCCN2[C@H](C(=O)NC(C)(C)C)[C@H](C)NC(=O)[C@H]([C@@H](C)O)NC(=O)[C@H](CC(=O)O)NC1=O` [Compound 476], 32 nM.
To `CC(C)C[C@@H]1NC(=O)c2ccc(-c3ccc(N4CCN(C(=O)c5cccc(-c6ccccc6C(=O)N6CCN(c7ccc(-c8ccc9cc8CNC(=O)[C@@H]8CCCN8[C@H](C(=O)NC(C)(C)C)[C@H](C)NC(=O)[C@H]([C@@H](C)O)NC(=O)[C@H](CC(=O)O)NC(=O)[C@H](CC(C)C)NC9=O)cc7)CC6)c5)CC4)cc3)c(c2)CNC(=O)[C@@H]2CCCN2[C@H](C(=O)NC(C)(C)C)[C@H](C)NC(=O)[C@H]([C@@H](C)O)NC(=O)[C@H](CC(=O)O)NC1=O` [Compound 478] belongs 34 nM.
With `CC(C)C[C@@H]1NC(=O)c2ccc(-c3ccc(N4CCN(C(=O)CC(=O)N5CCN(c6ccc(-c7ccc8cc7CNC(=O)[C@@H]7CCCN7[C@H](C(=O)NC(C)(C)C)[C@H](C)NC(=O)[C@H]([C@@H](C)O)NC(=O)[C@H](CC(=O)O)NC(=O)[C@H](CC(C)C)NC8=O)cc6)CC5)CC4)cc3)c(c2)CNC(=O)[C@@H]2CCCN2[C@H](C(=O)NC(C)(C)C)[C@H](C)NC(=O)[C@H]([C@@H](C)O)NC(=O)[C@H](CC(=O)O)NC1=O` [Compound 483], the IC50 was found to be 29 nM.
On to `CC(C)C[C@@H]1NC(=O)c2ccc(-c3ccc(N4CCN(C(=O)CCCC(=O)N5CCN(c6ccc(-c7ccc8cc7CNC(=O)[C@@H]7CCCN7[C@H](C(=O)NC(C)(C)C)[C@H](C)NC(=O)[C@H]([C@@H](C)O)NC(=O)[C@H](CC(=O)O)NC(=O)[C@H](CC(C)C)NC8=O)cc6)CC5)CC4)cc3)c(c2)CNC(=O)[C@@H]2CCCN2[C@H](C(=O)NC(C)(C)C)[C@H](C)NC(=O)[C@H]([C@@H](C)O)NC(=O)[C@H](CC(=O)O)NC1=O` [Compound 485], for which the IC50 amounted to 30 nM.
In the case of `CC(C)C[C@@H]1NC(=O)c2ccc(-c3ccc(N4CCN(C(=O)CCCCC(=O)N5CCN(c6ccc(-c7ccc8cc7CNC(=O)[C@@H]7CCCN7[C@H](C(=O)NC(C)(C)C)[C@H](C)NC(=O)[C@H]([C@@H](C)O)NC(=O)[C@H](CC(=O)O)NC(=O)[C@H](CC(C)C)NC8=O)cc6)CC5)CC4)cc3)c(c2)CNC(=O)[C@@H]2CCCN2[C@H](C(=O)NC(C)(C)C)[C@H](C)NC(=O)[C@H]([C@@H](C)O)NC(=O)[C@H](CC(=O)O)NC1=O` [Compound 486], the IC50 amounted to 42 nM.
To `CC(C)C[C@@H]1NC(=O)c2ccc(-c3ccc(N4CCN(C(=O)CCCCCCC(=O)N5CCN(c6ccc(-c7ccc8cc7CNC(=O)[C@@H]7CCCN7[C@H](C(=O)NC(C)(C)C)[C@H](C)NC(=O)[C@H]([C@@H](C)O)NC(=O)[C@H](CC(=O)O)NC(=O)[C@H](CC(C)C)NC8=O)cc6)CC5)CC4)cc3)c(c2)CNC(=O)[C@@H]2CCCN2[C@H](C(=O)NC(C)(C)C)[C@H](C)NC(=O)[C@H]([C@@H](C)O)NC(=O)[C@H](CC(=O)O)NC1=O` [Compound 487] belongs 65 nM; to `CC(C)C[C@@H]1NC(=O)c2ccc(-c3ccc(N4CCN(C(=O)CCCCCCCC(=O)N5CCN(c6ccc(-c7ccc8cc7CNC(=O)[C@@H]7CCCN7[C@H](C(=O)NC(C)(C)C)[C@H](C)NC(=O)[C@H]([C@@H](C)O)NC(=O)[C@H](CC(=O)O)NC(=O)[C@H](CC(C)C)NC8=O)cc6)CC5)CC4)cc3)c(c2)CNC(=O)[C@@H]2CCCN2[C@H](C(=O)NC(C)(C)C)[C@H](C)NC(=O)[C@H]([C@@H](C)O)NC(=O)[C@H](CC(=O)O)NC1=O` [Compound 488], 34 nM; to `CC(C)C[C@@H]1NC(=O)c2ccc(-c3ccc(N4CCN(C(=O)CCCCCCCCC(=O)N5CCN(c6ccc(-c7ccc8cc7CNC(=O)[C@@H]7CCCN7[C@H](C(=O)NC(C)(C)C)[C@H](C)NC(=O)[C@H]([C@@H](C)O)NC(=O)[C@H](CC(=O)O)NC(=O)[C@H](CC(C)C)NC8=O)cc6)CC5)CC4)cc3)c(c2)CNC(=O)[C@@H]2CCCN2[C@H](C(=O)NC(C)(C)C)[C@H](C)NC(=O)[C@H]([C@@H](C)O)NC(=O)[C@H](CC(=O)O)NC1=O` [Compound 489], 40 nM.
For the compound `CC(C)C[C@@H]1NC(=O)c2ccc(-c3ccc(N4CCN(C(=O)[C@H]5CCCC[C@H]5C(=O)N5CCN(c6ccc(-c7ccc8cc7CNC(=O)[C@@H]7CCCN7[C@H](C(=O)NC(C)(C)C)[C@H](C)NC(=O)[C@H]([C@@H](C)O)NC(=O)[C@H](CC(=O)O)NC(=O)[C@H](CC(C)C)NC8=O)cc6)CC5)CC4)cc3)c(c2)CNC(=O)[C@@H]2CCCN2[C@H](C(=O)NC(C)(C)C)[C@H](C)NC(=O)[C@H]([C@@H](C)O)NC(=O)[C@H](CC(=O)O)NC1=O` [Compound 491], the IC50 stood at 23 nM.
